Test results published in patent US6610675B1 (priority 1980, dated 2003).

Experiments:
[1] = tested on: granulation tissue formation caused by implantation of cotton pellets; assay: Granuloma formation test (local cotton pellet granuloma assay); type: in vivo, rat; details: for Body wt. gain / Granulation tissue Dry wt. / Granulation tissue Dry wt. Inhibition / Granulation tissue Wet wt. / Granulation tissue Wet wt. Inhibition / Thymus wt. / Thymus wt. (Decrease %): Table V-a; for ED60: dose causing 60% inhibition of granulation tissue weight; for Relative potency (ED40) / Relative potency (ED60): chloromethyl 11β-hydroxy-17α-isopropoxycarbonyloxyandrost-4-en-3-one-17β-carboxylate = 1; for ED40: dose causing 40% inhibition of granulation tissue weight
Procedure: The test compound was dissolved in acetone and aliquots of varying concentrations were injected into cotton pellets. The pellets were dried and then one pellet was implanted beneath the skin of each test rat. Six days later, the animals were sacrificed and the granulation tissue (granuloma) which formed in and around the implanted pellet was removed, dried and weighed. In addition, the thymi and adrenals were removed and weighed.

thymus weight in rats = assay: Thymus inhibition testing (subcutaneous administration); type: in vivo, rat
Procedure: Several further studies were undertaken to determine the effects of selected compounds of the invention on thymi weights in rats when the drugs were systemically administered. In each of these studies, male Sprague-Dawley rats were used. […] On the fifth day (48 hours following the last treatment), the animals were sacrificed and the thymi weights were recorded. […] It is evident that the higher the inhibition of thymus activity at a given dose, the more toxic the compound is.

[2] = dose causing 50% inhibition of granulation tissue weight
[3] = rat, in vivo, sc, 0.003 mg/kg/day
[4] = rat, in vivo, sc, 0.01 mg/kg/day
[5] = rat, in vivo, sc, 0.03 mg/kg/day
[6] = rat, in vivo, sc, 0.1 mg/kg/day
[7] = rat, in vivo, sc, 0.3 mg/kg/day
[8] = Table IX, 3 mg/kg/day s.c., three days
[9] = Table IX, 10 mg/kg/day s.c., three days
[10] = Table IX, 30 mg/kg/day s.c., three days
[11] = Table IX, 100 mg/kg/day s.c., three days
[12] = Table VIII, 10 mg/kg/day s.c., three days

## CCC(=O)O[C@]1(C(=O)CCl)[C@@H](C)C[C@H]2[C@@H]3CCC4=CC(=O)C=C[C@]4(C)[C@@]3(F)[C@@H](O)C[C@@]21C [Clobetasol 17-propionate, reference compound]
[1]; 1 μg/pellet
  Body wt. gain: 33.0 ± 1.2 g
  Granulation tissue Dry wt.: 42.0 ± 5.8 mg
  Granulation tissue Dry wt. Inhibition: 47.6%
  Granulation tissue Wet wt.: 401 ± 29 mg
  Granulation tissue Wet wt. Inhibition: 23.6%
  Thymus wt.: 478 ± 22 mg
  Thymus wt. (Decrease %): (3.4) %
[1]; 3 μg/pellet
  Body wt. gain: 24.9 ± 1.8 g
  Granulation tissue Dry wt.: 43.1 ± 8.9 mg
  Granulation tissue Dry wt. Inhibition: 46.2%
  Granulation tissue Wet wt.: 402 ± 40 mg
  Granulation tissue Wet wt. Inhibition: 23.4%
  Thymus wt.: 449 ± 21 mg
  Thymus wt. (Decrease %): (9.3) %
[1]; 10 μg/pellet
  Body wt. gain: 25.0 ± 2.1 g
  Granulation tissue Dry wt.: 37.9 ± 6.8 mg
  Granulation tissue Dry wt. Inhibition: 52.7%
  Granulation tissue Wet wt.: 364 ± 25 mg
  Granulation tissue Wet wt. Inhibition: 30.7%
  Thymus wt.: 322 ± 22 mg
  Thymus wt. (Decrease %): (34.9) %
[1]; 30 μg/pellet
  Body wt. gain: 24.8 ± 1.1 g
  Granulation tissue Dry wt.: 25.5 ± 2.1 mg
  Granulation tissue Dry wt. Inhibition: 68.2%
  Granulation tissue Wet wt.: 320 ± 10 mg
  Granulation tissue Wet wt. Inhibition: 39.0%
  Thymus wt.: 174 ± 26 mg
  Thymus wt. (Decrease %): (64.8) %
[1]; 100 μg/pellet
  Body wt. gain: 15.9 ± 1.0 g
  Granulation tissue Dry wt.: 23.9 ± 3.3 mg
  Granulation tissue Dry wt. Inhibition: 70.2%
  Granulation tissue Wet wt.: 325 ± 12 mg
  Granulation tissue Wet wt. Inhibition: 38.1%
  Thymus wt.: 84 ± 3 mg
  Thymus wt. (Decrease %): (83.0) %
[1]; [2]
  ED50: >3 μg/pellet
[1]
  ED60: >10 μg/pellet
Thymus weight in rats; rat, in vivo
  Relative Potency (TED40): 8.6
  Relative Potency (TED50): 11.2
Thymus weight in rats; rat, in vivo, sc
  TED40: 0.035 mg
  TED50: 0.052 mg
Thymus weight in rats; [3]
  Body weight gain: 18.3 ± 0.6 g
  Thymus wt.: 537 ± 28 mg
  Thymus wt. Inhibition: 2.4%
Thymus weight in rats; [4]
  Body weight gain: 15.5 ± 1.1 g
  Thymus wt.: 498 ± 15 mg
  Thymus wt. Inhibition: 9.5%
Thymus weight in rats; [5]
  Body weight gain: 12.3 ± 1.3 g
  Thymus wt.: 363 ± 22 mg
  Thymus wt. Inhibition: 34.0%
Thymus weight in rats; [6]
  Body weight gain: -0.4 ± 1.3 g
  Thymus wt.: 149 ± 9 mg
  Thymus wt. Inhibition: 72.9%
Thymus weight in rats; [7]
  Body weight gain: -14.3 ± 1.3 g
  Thymus wt.: 63 ± 3 mg
  Thymus wt. Inhibition: 88.5%

## COC(=O)O[C@]1(C(=O)OCCl)[C@H](C)C[C@H]2[C@@H]3CCC4=CC(=O)C=C[C@]4(C)[C@@]3(F)[C@@H](O)C[C@@]21C [chloromethyl 9α-fluoro-11β-hydroxy-17α-methoxycarbonyloxy-16α-methylandrosta-1,4-dien-3-one-17β-carboxylate]
[1]; Table XII, anti-inflammatory effect in cotton pellet granuloma
  ED50: 2.38 μg/pellet
Thymus weight in rats; [8]
  Body weight gain: 18.8 ± 1.4 g
  Thymus wt.: 426 ± 19 mg
  Thymus wt. Decrease: 0.0%
Thymus weight in rats; [9]
  Body weight gain: 13.8 ± 1.6 g
  Thymus wt.: 354 ± 8 mg
  Thymus wt. Decrease: 16.9%
Thymus weight in rats; [10]
  Body weight gain: 12.0 ± 0.8 g
  Thymus wt.: 282 ± 11 mg
  Thymus wt. Decrease: 33.8%
Thymus weight in rats; [11]
  Body weight gain: 9.8 ± 1.3 g
  Thymus wt.: 206 ± 15 mg
  Thymus wt. Decrease: 51.6%
Thymus weight in rats; Table XII, hydrocortisone 17-butyrate = 1
  Relative Potency (TED40): 1/36
Thymus weight in rats; Table XII, thymus inhibition effect, subcutaneously
  TED40: 46.0 mg/kg

## CCOC(=O)O[C@]1(C(=O)OCCl)[C@@H](C)C[C@H]2[C@@H]3CCC4=CC(=O)C=C[C@]4(C)[C@@]3(F)[C@@H](O)C[C@@]21C [chloromethyl 17α-ethoxycarbonyloxy-9α-fluoro-11β-hydroxy-16β-methylandrosta-1,4-dien-3-one-17β-carboxylate]
[1]; 0.3 μg/pellet
  Body wt. gain: 32.5 ± 1.1 g
  Granulation tissue Dry wt.: 61.8 ± 5.7 mg
  Granulation tissue Dry wt. Inhibition: 22.8%
  Granulation tissue Wet wt.: 499 ± 36 mg
  Granulation tissue Wet wt. Inhibition: 5.0%
  Thymus wt.: 501 ± 29 mg
[1]; 1 μg/pellet
  Body wt. gain: 36.3 ± 0.9 g
  Granulation tissue Dry wt.: 57.0 ± 6.2 mg
  Granulation tissue Dry wt. Inhibition: 28.8%
  Granulation tissue Wet wt.: 437 ± 24 mg
  Granulation tissue Wet wt. Inhibition: 16.8%
  Thymus wt.: 566 ± 31 mg
[1]; 3 μg/pellet
  Body wt. gain: 33.8 ± 1.3 g
  Granulation tissue Dry wt.: 47.5 ± 5.0 mg
  Granulation tissue Dry wt. Inhibition: 40.7%
  Granulation tissue Wet wt.: 422 ± 32 mg
  Granulation tissue Wet wt. Inhibition: 19.6%
  Thymus wt.: 500 ± 27 mg
[1]; 10 μg/pellet
  Body wt. gain: 31.1 ± 1.7 g
  Granulation tissue Dry wt.: 34.8 ± 5.5 mg
  Granulation tissue Dry wt. Inhibition: 56.6%
  Granulation tissue Wet wt.: 370 ± 21 mg
  Granulation tissue Wet wt. Inhibition: 29.5%
  Thymus wt.: 421 ± 30 mg
[1]
  Relative potency (ED40): 133
  Relative potency (ED60): 38
  ED40: 2.31 μg/pellet
  ED60: 18.01 μg/pellet
[1]; [2]
  ED50: 6.45 μg/pellet
Thymus weight in rats; [12]
  Body weight gain: 2.4 ± 1.8 g
  Thymus wt.: 266 ± 20 mg
  Thymus wt. Inhibition: 51.6%

## CCCOC(=O)O[C@]1(C(=O)OCCl)[C@H](C)C[C@H]2[C@@H]3CCC4=CC(=O)C=C[C@]4(C)[C@@]3(F)[C@@H](O)C[C@@]21C [chloromethyl 9α-fluoro-11β-hydroxy-16α-methyl-17α-propoxycarbonyloxyandrosta-1,4-dien-3-one-17β-carboxylate]
[1]; 0.3 μg/pellet
  Body wt. gain: 35.6 ± 1.0 g
  Granulation tissue Dry wt.: 55.1 ± 6.2 mg
  Granulation tissue Dry wt. Inhibition: 31.2%
  Granulation tissue Wet wt.: 454 ± 27 mg
  Granulation tissue Wet wt. Inhibition: 13.5%
  Thymus wt.: 523 ± 28 mg
[1]; 1 μg/pellet
  Body wt. gain: 31.9 ± 0.8 g
  Granulation tissue Dry wt.: 42.9 ± 5.1 mg
  Granulation tissue Dry wt. Inhibition: 46.4%
  Granulation tissue Wet wt.: 415 ± 30 mg
  Granulation tissue Wet wt. Inhibition: 21.0%
  Thymus wt.: 453 ± 21 mg
[1]; 3 μg/pellet
  Body wt. gain: 34.1 ± 1.9 g
  Granulation tissue Dry wt.: 29.7 ± 3.2 mg
  Granulation tissue Dry wt. Inhibition: 62.9%
  Granulation tissue Wet wt.: 360 ± 18 mg
  Granulation tissue Wet wt. Inhibition: 31.4%
  Thymus wt.: 504 ± 42 mg
[1]; 10 μg/pellet
  Body wt. gain: 33.1 ± 1.6 g
  Granulation tissue Dry wt.: 28.5 ± 2.8 mg
  Granulation tissue Dry wt. Inhibition: 64.4%
  Granulation tissue Wet wt.: 350 ± 13 mg
  Granulation tissue Wet wt. Inhibition: 33.3%
  Thymus wt.: 547 ± 26 mg
[1]
  Relative potency (ED40): 529
  Relative potency (ED60): 277
  ED40: 0.58 μg/pellet
  ED60: 2.49 μg/pellet
[1]; [2]
  ED50: 1.20 μg/pellet
Thymus weight in rats; [12]
  Body weight gain: 2.7 ± 1.7 g
  Thymus wt.: 277 ± 25 mg
  Thymus wt. Inhibition: 49.6%
